Here are results for 8 compounds from ChEMBL document CHEMBL1201862, “PubChem BioAssay data set” (2004).

Some test systems named below: 786-0; CCRF-CEM; Hs-578T; K562; M14; MDA-MB-231; MDA-N; NCI-H226; NCI-H460; OVCAR-3; RPMI-8226; SK-MEL-2; SK-OV-3; SN12C; TK-10; UACC-257; UO-31; IGROV-1; SF-295.
Common to all, as to experiment: NCI anticancer screen, dose series, 48 h

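Step 1: Grow cells in 96-well plates. Step 2: Expose to compound for 48 hours at 5 concentrations. Step 3: Interpolate endpoints linearly; if unreached, use highest concentration. GI50: concentration for 50% inhibition of growth.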 The source made the active and inactive calls. Cut-off read from the data, not from the text of the source: active = GI50 up to about 1.1 µM and inactive = higher. A value given as a limit tells only on which side of the number the result lay.

Take `O=c1[nH][nH]c(=O)n1Cc1cccc(Cn2c(=O)[nH][nH]c2=O)c1`: the GI50 in the assay on 786-0, with CCRF-CEM, in the assay with Hs-578T, in the assay on K562, in the assay on M14 and with MDA-MB-231 was > 100 µM (inactive) each time. Further, the GI50 in the assay on MDA-N, in the assay with NCI-H226, in the assay with NCI-H460, in the assay with OVCAR-3, with RPMI-8226 and in the assay on SK-MEL-2 was > 100 µM (inactive) in each case. For the same compound, the GI50 in the assay on SK-OV-3, with SN12C, with TK-10, in the assay with UACC-257 and with UO-31 was > 100 µM (inactive) each time.

For the compound `CC1OC(OC2C(CO)OC(O[C@H]3CC[C@@]4(C)C(=CC[C@H]5[C@@H]6C[C@@H]7O[C@](O)(CC[C@H](C)COC8OC(CO)C(O)C(O)C8O)[C@@H](C)[C@@H]7[C@@]6(C)CC[C@@H]54)C3)C(OC3OC(C)C(O)C(O)C3O)C2O)C(O)C(O)C1O` (stereo partly drawn), the GI50 is 2.52 µM (inactive) with 786-0; 1.42 µM (inactive) with CCRF-CEM; 2.63 µM (inactive) in the assay on Hs-578T; 5.75 µM (inactive) in the assay on IGROV-1; 2.8 µM (inactive) in the assay on K562; 3.05 µM (inactive) with M14. Further, the GI50 is 8.55 µM (inactive) with MDA-MB-231; 3.4 µM (inactive) in the assay with MDA-N; 9.62 µM (inactive) in the assay with NCI-H226; 4.81 µM (inactive) in the assay with NCI-H460; 8.2 µM (inactive) with OVCAR-3; 6.25 µM (inactive) in the assay with RPMI-8226. Besides, the GI50 was 4.41 µM (inactive) with SF-295; 6.21 µM (inactive) with SK-MEL-2; 2.91 µM (inactive) with SK-OV-3; 10 µM (inactive) in the assay on SN12C; > 73.3 µM (inactive) in the assay with TK-10; 6.64 µM (inactive) in the assay on UACC-257. Further, the GI50 with UO-31 is 3.63 µM (inactive).

Consider `NC1=NN(c2ccccc2)C2(O)c3ccncc3C3=NN(c4ccccc4)C(=O)C132` (stereo not drawn), for which the GI50 in the assay with 786-0 is > 100 µM (inactive); in the assay on CCRF-CEM, > 10 µM (inactive); with Hs-578T it was > 100 µM (inactive); in the assay with IGROV-1 it was > 100 µM (inactive); in the assay on K562 it was > 100 µM (inactive); in the assay with M14, > 100 µM (inactive). Also, the GI50 in the assay on MDA-MB-231, in the assay with MDA-N, with NCI-H226, with NCI-H460, with OVCAR-3 and in the assay on RPMI-8226 was > 100 µM (inactive) each time. Moreover, the GI50 in the assay with SF-295, in the assay on SK-MEL-2, in the assay on SK-OV-3, with SN12C, with UACC-257 and with UO-31 was > 100 µM (inactive) each time.

In the case of `NCCCN(CCCN)CCc1cn(C(=O)c2ccccc2)cn1`, the GI50 is 8.59 µM (inactive) in the assay on 786-0; 2.17 µM (inactive) in the assay on CCRF-CEM; 11.4 µM (inactive) with Hs-578T; 4.19 µM (inactive) in the assay with IGROV-1; 3.61 µM (inactive) in the assay with K562; 4.94 µM (inactive) with M14. In addition, the GI50 in the assay on MDA-MB-231 is 14.2 µM (inactive); in the assay with MDA-N it was 9.1 µM (inactive); in the assay on NCI-H226 it was 9.64 µM (inactive); in the assay with NCI-H460, 15.7 µM (inactive); in the assay on OVCAR-3, 2.69 µM (inactive); in the assay on RPMI-8226, 2.38 µM (inactive). The GI50 in the assay with SF-295 was 12.7 µM (inactive); with SK-MEL-2, 9.1 µM (inactive); in the assay on SK-OV-3 it was 11.2 µM (inactive); in the assay on SN12C, 6.41 µM (inactive); in the assay with TK-10, 5.33 µM (inactive); with UACC-257, 9.2 µM (inactive).

Consider `Cc1ccc(NC2=NCCO2)c2c1CCC2`, for which the GI50 is 56 µM (inactive) in the assay on 786-0; 37.2 µM (inactive) in the assay on CCRF-CEM; 22.9 µM (inactive) with Hs-578T; 40 µM (inactive) with IGROV-1; 26.7 µM (inactive) with K562; 21 µM (inactive) with M14. Besides, the GI50 in the assay with MDA-MB-231 was 19.7 µM (inactive); with MDA-N, 17.6 µM (inactive); in the assay on NCI-H226, 32.4 µM (inactive); in the assay on NCI-H460 it was 27.5 µM (inactive); with OVCAR-3, 21.6 µM (inactive); in the assay with RPMI-8226 it was 34.8 µM (inactive). The GI50 was > 100 µM (inactive) with SF-295; 20 µM (inactive) with SK-MEL-2; 41.5 µM (inactive) in the assay on SK-OV-3; 45 µM (inactive) with SN12C; > 100 µM (inactive) with TK-10; > 100 µM (inactive) in the assay with UO-31.

As for `O=C1/C(=C\c2ccc([N+](=O)[O-])cc2)CS(=O)(=O)C/C1=C/c1ccc([N+](=O)[O-])cc1`, the GI50 in the assay with 786-0 was 0.149 µM (active); in the assay with CCRF-CEM, 0.264 µM (active); in the assay with Hs-578T, 1.35 µM (inactive); in the assay on IGROV-1, 0.641 µM (active); in the assay with M14, 0.74 µM (active); with MDA-MB-231, 0.193 µM (active). The GI50 is 0.35 µM (active) in the assay with MDA-N; 2.83 µM (inactive) with NCI-H226; 0.515 µM (active) with NCI-H460; 0.141 µM (active) in the assay on OVCAR-3; 0.0942 µM (active) in the assay on RPMI-8226; 1.74 µM (inactive) with SF-295. The GI50 in the assay on SK-MEL-2 is 1.17 µM (inactive); in the assay on SK-OV-3, 4.8 µM (inactive); in the assay with TK-10, 0.787 µM (active); in the assay on UACC-257, 1.81 µM (inactive); in the assay with UO-31, 0.176 µM (active).

As for `COc1cccc(-c2cc(O)c3cc(C)cnc3n2)c1`, the GI50 in the assay on 786-0 is 0.0488 µM (active); with CCRF-CEM, 0.0366 µM (active); in the assay with Hs-578T, 0.0495 µM (active); with IGROV-1, 0.469 µM (active); in the assay on K562 it was 0.0381 µM (active); in the assay with M14, 0.0543 µM (active). Further, the GI50 was 0.415 µM (active) in the assay with MDA-MB-231; 0.0106 µM (active) in the assay with MDA-N; 0.0757 µM (active) in the assay with NCI-H226; 0.0458 µM (active) with NCI-H460; 0.049 µM (active) with OVCAR-3; 0.0421 µM (active) in the assay with RPMI-8226. In addition, the GI50 with SF-295 was 0.0405 µM (active); with SK-MEL-2 it was 0.0293 µM (active); in the assay on SK-OV-3, 0.283 µM (active); in the assay with SN12C, 0.0538 µM (active); in the assay with UACC-257, > 100 µM (inactive); in the assay with UO-31, 1.26 µM (inactive).

On to `CC(C)COP(=O)(OCC(C)C)C(NS(=O)(=O)c1ccccc1)(C(F)(F)F)C(F)(F)F`, for which the GI50 in the assay on 786-0 was 7.53 µM (inactive); in the assay on CCRF-CEM, 3.36 µM (inactive); in the assay on Hs-578T it was 9.33 µM (inactive); in the assay on IGROV-1 it was 4.41 µM (inactive); with K562, 4.8 µM (inactive); in the assay with M14, 12.8 µM (inactive). The GI50 in the assay with MDA-MB-231 is 2.04 µM (inactive); in the assay on MDA-N, 5.51 µM (inactive); with NCI-H226 it was 16.9 µM (inactive); in the assay with OVCAR-3, 4.82 µM (inactive); in the assay with RPMI-8226 it was 1.66 µM (inactive); with SF-295, 5.6 µM (inactive). Also, the GI50 was 3.4 µM (inactive) in the assay on SK-MEL-2; 5.47 µM (inactive) in the assay on SK-OV-3; 3.22 µM (inactive) in the assay on SN12C; 3.68 µM (inactive) in the assay with TK-10; 4.24 µM (inactive) with UACC-257; 2.22 µM (inactive) in the assay with UO-31.
